Measurements as given in patent US9505762B2, “Purine derivatives as CB2 receptor agonists” (Hoffmann-La Roche Inc., priority 2013, dated 2016).

Legend:
human CB2 receptors = human CB2 receptors (Homo sapiens (Human), UniProt P34972); assay: functional cAMP assay, CB2; assay type: cell-based; conditions: CHO cells expressing human CB2
Procedure: (§1) The growth medium was exchanged with Krebs Ringer Bicarbonate buffer with 1 mM IBMX and incubated at 30° C. for 30 min. Compounds were added to a final assay volume of 100 μl and incubated for 30 min at 30° C. Using the cAMP-Nano-TRF detection kit the assay (Roche Diagnostics) was stopped by the addition of 50 μl lysis reagent (Tris, NaCl, 1.5% Triton X100, 2.5% NP40, 10% NaN3) and 50 μl detection solutions (20 μM mAb Alexa700-cAMP 1:1, and 48 μM Ruthenium-2-AHA-cAMP) and shaken for 2 h at room temperature. The time-resolved energy transfer is measured by a TRF reader (Evotec Technologies GmbH), equipped with a ND:YAG laser as excitation source. The plate is measured twice with the excitation at 355 nm and at the emission with a delay of 100 ns and a gate of 100 ns, total exposure time 10 s at 730 (bandwidth 30 nm) or 645 nm (bandwidth 75 nm), respectively.
(§2) EC50 values were determined using Activity Base analysis (ID Business Solution, Limited).

human CB1 receptors = human CB1 receptors (Homo sapiens (Human), UniProt P21554); assay: functional cAMP assay, CB1; assay type: cell-based; conditions: CHO cells expressing human CB1
human CB1 receptors, sequence (P21554 whole entry): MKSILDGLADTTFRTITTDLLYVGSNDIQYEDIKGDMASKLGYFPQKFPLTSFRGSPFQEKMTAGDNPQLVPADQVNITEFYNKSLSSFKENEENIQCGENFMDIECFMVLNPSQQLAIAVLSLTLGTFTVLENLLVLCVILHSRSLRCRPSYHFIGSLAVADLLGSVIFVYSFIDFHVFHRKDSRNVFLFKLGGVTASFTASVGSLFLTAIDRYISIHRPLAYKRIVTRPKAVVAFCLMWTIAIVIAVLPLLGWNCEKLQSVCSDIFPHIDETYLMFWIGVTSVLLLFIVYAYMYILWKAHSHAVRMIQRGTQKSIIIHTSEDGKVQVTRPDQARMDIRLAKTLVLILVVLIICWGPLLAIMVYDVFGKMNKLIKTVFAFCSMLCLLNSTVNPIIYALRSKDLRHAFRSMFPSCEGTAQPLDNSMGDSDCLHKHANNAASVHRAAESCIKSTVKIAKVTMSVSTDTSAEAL
Procedure: as §1, §2

human CB2 receptors, sequence (P34972 whole entry): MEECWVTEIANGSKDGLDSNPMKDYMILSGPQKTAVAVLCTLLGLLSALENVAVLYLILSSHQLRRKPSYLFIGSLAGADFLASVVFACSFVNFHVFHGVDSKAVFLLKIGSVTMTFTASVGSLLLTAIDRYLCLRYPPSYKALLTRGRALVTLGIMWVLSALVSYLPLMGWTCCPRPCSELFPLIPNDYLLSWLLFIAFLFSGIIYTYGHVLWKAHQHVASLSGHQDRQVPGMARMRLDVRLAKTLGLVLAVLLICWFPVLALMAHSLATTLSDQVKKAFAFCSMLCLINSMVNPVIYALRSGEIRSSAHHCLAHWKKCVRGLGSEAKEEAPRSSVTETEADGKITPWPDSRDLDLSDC

SMILES | EC50 (human CB2 receptors) [nM] | EC50 (human CB1 receptors) [nM]
CC(C)(C)c1nc(N2CCC3(COC3)C2)c2ncn(CCC(F)(F)F)c2n1 [Example 89, 7-[2-tert-butyl-9-(3,3,3-trifluoropropyl)purin-6-yl]-2-oxa-7-azaspiro[3.4]octane] | 573 | > 10000
CC1(O)CCN(c2nc(C(C)(C)C)nc3c2ncn3Cc2ccccc2S(C)(=O)=O)C1 (centres unmarked) [Example 74, 1-[2-tert-butyl-9-[(2-methylsulfonylphenyl)methyl]purin-6-yl]-3-methylpyrrolidin-3-ol] | 88.4 | > 10000
CC(C)(C)c1nc(N2CCC(O)C2)c2ncn(Cc3cccc(Cl)c3)c2n1 (centres unmarked) [Example 25, 1-[2-tert-butyl-9-[(3-chlorophenyl)methyl]purin-6-yl]pyrrolidin-3-ol] | 58.8 | > 10000
CC(C)(C)c1nc(N2CCC[C@@H]2CO)c2ncn(Cc3ncccc3Cl)c2n1 [Example 157, [(2R)-1-[2-tert-Butyl-9-[(3-chloropyridin-2-yl)methyl]purin-6-yl]pyrrolidin-2-yl]methanol] | 4.3 | > 10000
CC(C)(C)c1nc(N2CCC3(COC3)C2)c2ncn(Cc3ccccc3Cl)c2n1 [Example 56, 7-[2-tert-butyl-9-[(2-chlorophenyl)methyl]purin-6-yl]-2-oxa-7-azaspiro[3.4]octane] | 55.8 | > 10000
CC(=O)N[C@H]1CCN(c2nc(C(C)(C)C)nc3c2ncn3Cc2ccc(Cl)cc2)C1 [Example 50, N—[(S)-1-[2-tert-butyl-9-[(4-chlorophenyl)methyl]purin-6-yl]pyrrolidin-3-yl]acetamide] | 534 | > 10000
Cc1nnc(Cn2cnc3c(N4CC(F)(F)C(F)(F)C4)nc(C(C)(C)C)nc32)o1 [Example 79, 2-[[2-tert-butyl-6-(3,3,4,4-tetrafluoropyrrolidin-1-yl)purin-9-yl]methyl]-5-methyl-1,3,4-oxadiazole] | 116 | > 10000
CC(C)(C)c1nc(N2CC[C@H](O)C2)c2ncn(Cc3ncccc3Cl)c2n1 [Example 92, (3S)-1-[2-tert-butyl-9-[(3-chloropyridin-2-yl)methyl]purin-6-yl]pyrrolidin-3-ol] | 8.4 | > 10000
CC(C)(C)c1nc(N2CC[C@H](O)C2)c2ncn(Cc3cccnc3Cl)c2n1 [Example 91, (3S)-1-[2-tert-butyl-9-[(2-chloropyridin-3-yl)methyl]purin-6-yl]pyrrolidin-3-ol] | 1.7 | > 10000
CC(=O)N[C@H]1CCN(c2nc(C(C)(C)C)nc3c2ncn3Cc2n[nH]cc2C(F)(F)F)C1 [Example 77, N—[(S)-1-[2-tert-butyl-9-[[4-(trifluoromethyl)-1H-pyrazol-3-yl]methyl]purin-6-yl]pyrrolidin-3-yl]acetamide] | 205 | > 10000
CC(C)(C)c1nc(N2CC(F)(F)C(F)(F)C2)c2ncn(Cc3ccccc3C(F)(F)F)c2n1 [Example 105, 2-tert-butyl-6-(3,3,4,4-tetrafluoropyrrolidin-1-yl)-9-[[2-(trifluoromethyl)phenyl]methyl]purine] | 8.9 | > 10000
Cc1nonc1Cn1cnc2c(N3CC[C@H](O)C3)nc(NC(C)(C)C)nc21 [Example 119, (3S)-1-[2-(tert-butylamino)-9-[(4-methyl-1,2,5-oxadiazol-3-yl)methyl]purin-6-yl]pyrrolidin-3-ol] | 149 | > 10000
FC1(F)CCN(c2nc(Cl)nc3c2ncn3Cc2ccccc2)C1 [Example 154, 9-benzyl-2-chloro-6-(3,3-difluoropyrrolidin-1-yl)purine] | 211 | > 10000
CC(C)(C)COc1nc(N2CCC(C)(O)C2)c2ncn(Cc3ccccc3S(C)(=O)=O)c2n1 (centres unmarked) [Example 133, 1-[2-(2,2-dimethylpropoxy)-9-[(2-methylsulfonylphenyl)methyl]purin-6-yl]-3-methylpyrrolidin-3-ol] | 149 | > 10000
CC1(O)CCN(c2nc(C(C)(C)C)nc3c2ncn3Cc2cccnc2Cl)C1 (centres unmarked) [Example 68, 1-[2-tert-butyl-9-[(2-chloropyridin-3-yl)methyl]purin-6-yl]-3-methylpyrrolidin-3-ol] | 24.8 | > 10000
Cc1nnc(Cn2cnc3c(N4CCC(F)(F)C4)nc(C(C)(C)C)nc32)o1 [Example 11, 2-[[2-tert-butyl-6-(3,3-difluoropyrrolidin-1-yl)purin-9-yl]methyl]-5-methyl-1,3,4-oxadiazole] | 61.7 | > 10000
CC(C)(C)Nc1nc(N2CC3(COC3)C2)c2ncn(Cc3ccccc3Cl)c2n1 [Example 138, N-tert-butyl-9-[(2-chlorophenyl)methyl]-6-(2-oxa-6-azaspiro[3.3]heptan-6-yl)purin-2-amine] | 78.1 | > 10000

SMILES | EC50 (human CB2 receptors) [nM] | EC50 (human CB1 receptors) [nM]
CC(C)(C)c1nc(N2CC[C@H](O)[C@H]2CO)c2ncn(Cc3ncccc3Cl)c2n1 [Example 159, (2R,3S)-1-[2-tert-butyl-9-[(3-chloropyridin-2-yl)methyl]purin-6-yl]-2-(hydroxymethyl)pyrrolidin-3-ol] | 591 | > 10000
CC(C)(C)c1nc(N2CCC[C@@H]2C#N)c2ncn(Cc3ncccc3Cl)c2n1 [Example 163, (2R)-1-[2-tert-Butyl-9-[(3-chloropyridin-2-yl)methyl]purin-6-yl]pyrrolidine-2-carbonitrile] | 6.9 | > 10000
CC(=O)N[C@H]1CCN(c2nc(C(C)(C)C)nc3c2ncn3Cc2ccccc2C(F)(F)F)C1 [Example 51, N—[(S)-1-[2-tert-butyl-9-[[2-(trifluoromethyl)phenyl]methyl]purin-6-yl]pyrrolidin-3-yl]acetamide] | 64.7 | > 10000
Cc1noc(Cn2cnc3c(N4CC5(COC5)C4)nc(NC(C)(C)C)nc32)n1 [Example 141, N-tert-butyl-9-[(3-methyl-1,2,4-oxadiazol-5-yl)methyl]-6-(2-oxa-6-azaspiro[3.3]heptan-6-yl)purin-2-amine] | 40.9 | > 10000
CCn1cnc2c(N3CCC(O)C3)nc(C(C)(C)C)nc21 (centres unmarked) [Example 35, 1-(2-tert-butyl-9-ethylpurin-6-yl)pyrrolidin-3-ol] | 432 | > 10000
COc1ccc(Cn2cnc3c(N4CCC(F)(F)C4)nc(C(C)(C)C)nc32)cc1 [Example 20, 2-tert-butyl-6-(3,3-difluoropyrrolidin-1-yl)-9-[(4-methoxyphenyl)methyl]purine] | 12.5 | > 10000
CC(C)(C)c1nc(N2CCC3(C2)CC3(F)F)c2ncn(Cc3ncccc3Cl)c2n1 (centres unmarked) [Example 168, 2-tert-butyl-9-[(3-chloropyridin-2-yl)methyl]-6-(2,2-difluoro-5-azaspiro[2.4]heptan-5-yl)purine] | 32.4 | > 10000
CC(C)(C)c1nc(N2CCC[C@@H]2C#N)c2ncn(Cc3nnnn3C3CC3)c2n1 [Example 147, (2R)-1-[2-tert-butyl-9-[(1-cyclopropyltetrazol-5-yl)methyl]purin-6-yl]pyrrolidine-2-carbonitrile] | 176 | > 10000
Cc1ccc(Cn2cnc3c(N4CCC(O)C4)nc(C(C)(C)C)nc32)cc1 (centres unmarked) [Example 39, 1-[2-tert-butyl-9-[(4-methylphenyl)methyl]purin-6-yl]pyrrolidin-3-ol] | 16.9 | > 10000
CC1(O)CCN(c2nc(C(C)(C)C)nc3c2ncn3Cc2ncccc2Cl)C1 (centres unmarked) [Example 69, 1-[2-tert-butyl-9-[(3-chloropyridin-2-yl)methyl]purin-6-yl]-3-methylpyrrolidin-3-ol] | 46.8 | > 10000
CC(C)(C)c1nc(N2CCC(O)C2)c2ncn(C3CCOC3)c2n1 (centres unmarked) [Example 46, 1-[2-tert-butyl-9-(oxolan-3-yl)purin-6-yl]pyrrolidin-3-ol] | 139 | > 10000
CC1(O)CCN(c2nc(NC(C)(C)C)nc3c2ncn3Cc2ccccc2C(F)(F)F)C1 (centres unmarked) [Example 121, 1-[2-(tert-butylamino)-9-[[2-(trifluoromethyl)phenyl]methyl]purin-6-yl]-3-methylpyrrolidin-3-ol] | 41.3 | > 10000
COCCn1cnc2c(N3CCC4(COC4)C3)nc(C(C)(C)C)nc21 [Example 63, 7-[2-tert-butyl-9-(2-methoxyethyl)purin-6-yl]-2-oxa-7-azaspiro[3.4]octane] | 661 | > 10000
CC(C)(C)Nc1nc(N2CC[C@H](O)C2)c2ncn(Cc3ccccc3Cl)c2n1 [Example 116, (3S)-1-[2-(tert-butylamino)-9-[(2-chlorophenyl)methyl]purin-6-yl]pyrrolidin-3-ol] | 12.1 | > 10000
CCn1cnc2c(N3CCC(F)(F)C3)nc(C(C)(C)C)nc21 [Example 9, 2-tert-butyl-6-(3,3-difluoropyrrolidin-1-yl)-9-ethylpurine] | 48.8 | > 10000
CC(C)(C)c1nc(N2CC[C@H](O)C2)c2ncn(Cc3ccccc3C(F)(F)F)c2n1 [Example 86, (3S)-1-[2-tert-butyl-9-[[2-(trifluoromethyl)phenyl]methyl]purin-6-yl]pyrrolidin-3-ol] | 1.1 | > 10000
CC(C)(C)c1nc(N2CCC(O)C2)c2ncn(Cc3c[nH]nc3C(F)(F)F)c2n1 (centres unmarked) [Example 44, 1-[2-tert-butyl-9-[[3-(trifluoromethyl)-1H-pyrazol-4-yl]methyl]purin-6-yl]pyrrolidin-3-ol] | 14.8 | > 10000
